# Assay results published in patent publication US12655116B2, “Substituted isophthalic acid diamides” (Bayer Aktiengesellschaft, priority 2020, dated 2026).
# Tests used:
# [1] = test system: ALOMY; assay: Post-emergence herbicidal action against ALOMY; format: in vivo, Alopecurus myosuroides; settings: dosage 20 g/ha, visual assessment about 3 weeks after treatment vs untreated controls
# In short: (§1)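 Greenhouse pot plants in sandy loam were sprayed at the one-leaf stage, 2 to 3 weeks after sowing, with WP or EC formulations as aqueous suspension or emulsion (600 to 800 l/ha water, 0.2% wetting agent). About 3 weeks later, damage was scored visually against untreated controls as % action (100% = dead, 0% = like control).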
# [2] = test system: ABUTH; assay: Pre-emergence herbicidal action against ABUTH; format: in vivo, Abutilon theophrasti; settings: for Pre-emergence action against ABUTH (herbicidal activity): 80 g/ha, scored visually after 3 weeks vs untreated controls (100% = plants have died, 0% = like control plants)
# In short: (§2)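 Visual rating at 3 weeks vs untreated pots; 0–100% scale, 100% = plants died. Treatment: aqueous WP/EC spray onto covering soil, 600–800 l/ha, 0.2% wetter, seeds in sandy loam.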
# [3] = test system: ALOMY; assay: Pre-emergence herbicidal action against ALOMY; format: in vivo, Alopecurus myosuroides; settings: 80 g/ha, pre-emergence, scored visually after 3 weeks vs untreated controls (100% = plants have died, 0% = like control plants)
# In short: as §2
# [4] = test system: AMARE; assay: Post-emergence herbicidal action against AMARE; format: in vivo, Amaranthus retroflexus; settings: 20 g/ha, visual assessment about 3 weeks after treatment, 100% = plants have died, 0% = like control plants
# In short: as §1
# [5] = test system: DIGSA; assay: Pre-emergence herbicidal action against DIGSA; format: in vivo, Digitaria sanguinalis
# In short: as §2
# [6] = test system: SETVI; assay: Pre-emergence herbicidal action against SETVI; format: in vivo, Setaria viridis; settings: dosage 80 g/ha
# In short: as §2
# [7] = test system: ECHCG; assay: Pre-emergence herbicidal action against ECHCG; format: in vivo, Echinochloa crus-galli
# In short: as §2
# [8] = test system: ECHCG; assay: Post-emergence herbicidal action against ECHCG; format: in vivo, Echinochloa crus-galli
# In short: as §1
# [9] = test system: DIGSA; assay: Post-emergence herbicidal action against DIGSA; format: in vivo, Digitaria sanguinalis; settings: for Post-emergence action against DIGSA: 20 g/ha
# In short: as §1
# [10] = test system: AMARE; assay: Pre-emergence herbicidal action against AMARE; format: in vivo, Amaranthus retroflexus
# In short: as §2
# [11] = test system: MATIN; assay: Pre-emergence herbicidal action against MATIN; format: in vivo, Matricaria inodora
# In short: as §2
# [12] = test system: PHBPU; assay: Pre-emergence herbicidal action against PHBPU; format: in vivo, Pharbitis purpurea; settings: dosage 80 g/ha
# In short: as §2
# [13] = test system: VIOTR; assay: Pre-emergence herbicidal action against VIOTR; format: in vivo, Viola tricolor
# In short: as §2
# [14] = test system: SETVI; assay: Post-emergence herbicidal action against SETVI; format: in vivo, Setaria viridis; settings: dosage 20 g/ha
# In short: as §1
# [15] = test system: PHBPU; assay: Post-emergence herbicidal action against PHBPU; format: in vivo, Pharbitis purpurea
# In short: as §1
# [16] = test system: ABUTH; assay: Post-emergence herbicidal action against ABUTH; format: in vivo, Abutilon theophrasti; settings: visual assessment about 3 weeks after treatment vs untreated controls
# In short: as §1
# [17] = test system: VERPE; assay: Post-emergence herbicidal action against VERPE; format: in vivo, Veronica persica; settings: 20 g/ha
# In short: as §1
# [18] = test system: VIOTR; assay: Post-emergence herbicidal action against VIOTR; format: in vivo, Viola tricolor; settings: 20 g/ha
# In short: as §1
# [19] = test system: VERPE; assay: Pre-emergence herbicidal action against VERPE; format: in vivo, Veronica persica; settings: dosage 80 g/ha
# In short: as §2
# [20] = test system: AVEFA; assay: Pre-emergence herbicidal action against AVEFA; format: in vivo, Avena fatua; settings: 80 g/ha, pre-emergence
# In short: as §2
# [21] = 20 g/ha, scored visually after 3 weeks vs untreated controls, 100% = plants have died, 0% = like control plants
# [22] = 80 g/ha, scored visually after 3 weeks vs untreated controls (100% = plants have died, 0% = like control plants)
SMILES,Post-emergence action against ALOMY in % [1] [%],Pre-emergence action against ABUTH (herbicidal activity) [2] [%],Pre-emergence action against ALOMY (herbicidal activity) [3] [%],Post-emergence action at 20 g/ha against AMARE in % [4] [%],Pre-emergence action against DIGSA in % ([5]; dosage 20 g/ha) [%],Pre-emergence action against DIGSA in % ([5]; dosage 80 g/ha) [%],Pre-emergence action against SETVI in % [6] [%],Pre-emergence action against ECHCG in % ([7]; 80 g/ha) [%],Post-emergence action against ECHCG in % ([8]; dosage 20 g/ha) [%],Post-emergence action against DIGSA [9] [%],"Pre-emergence action against AMARE in % [10, 21] [%]","Pre-emergence action against AMARE in % [10, 22] [%]",Pre-emergence action against MATIN in % ([11]; dosage 20 g/ha) [%],Pre-emergence action against MATIN in % ([11]; dosage 80 g/ha) [%],Pre-emergence action against PHBPU in % [12] [%],Pre-emergence action against VIOTR in % ([13]; dosage 80 g/ha) [%],Post-emergence action against PHBPU in % ([15]; dosage 20 g/ha) [%],Post-emergence action against VERPE in % [17] [%],also measured
COCCNC(=O)c1c(C(F)F)ccc(C(=O)Nc2nnnn2C)c1Cl [Example 1-156],80,100,90,90,100,100,100,100,90,90,100,100,90,100,80,100,90,80,Post-emergence action against ECHCG in % ([8]; dosage 5 g/ha): 80%; Post-emergence action against SETVI in % [14]: 80%; Post-emergence action against ABUTH in % ([16]; dosage 5 g/ha): 90%; Post-emergence action against ABUTH in % ([16]; dosage 20 g/ha): 90%
Cn1nnnc1NC(=O)c1ccc(C(F)F)c(C(=O)NCC2CC2)c1Br [Example 1-228],90,100,90,90,100,100,100,100,80,90,100,100,80,100,90,100,80,90,"Pre-emergence action against ABUTH (herbicidal activity in percent) ([2]; dosage 20 g/ha, scored visually after 3 weeks vs untreated controls, 100% = plants have died, 0% = like control plants): 100%; Post-emergence action against VIOTR in % [18]: 80%; Pre-emergence action against ECHCG in % ([7]; 20 g/ha): 90%; Post-emergence action against DIGSA in % ([9]; 5 g/ha): 90%; Pre-emergence action against VERPE in % [19]: 90%; Pre-emergence action against VIOTR in % ([13]; dosage 20 g/ha): 90%; Post-emergence action against PHBPU in % ([15]; dosage 5 g/ha): 80%; Pre-emergence action against AVEFA in % [20]: 90%"
